In the supplement of paper PMC10307832:

Tests used:
Assay in all cases: relative viability (nuclei count vs DMSO), 5 days (fraction); higher = more cells survive
[1] = compound: CC1=CC=C(C=C1)C(=O)CN2C3=C(CCCC3)SC2=N [Pifithrin_alpha] + CC(=O)Nc1cccc(-n2c(=O)n(C3CC3)c(=O)c3c(Nc4ccc(I)cc4F)n(C)c(=O)c(C)c32)c1 [Trametinib] (partner 0.02 µM)
Summary of the method: (§1)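 Relative viability equals treated-well nuclei counts divided by vehicle-well nuclei counts. Counts came from 4× images of lung cancer cell lines grown in 1536-well plates for 5 days after pin-tool dosing on the day after seeding. Dosing used one drug alone or a fixed anchor-drug dose plus five library-drug doses (not always all listed) in √10 steps, and values are medians of duplicate plates.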

[2] = compound: CC1=CC=C(C=C1)C(=O)CN2C3=C(CCCC3)SC2=N [Pifithrin_alpha] + COc1cccc2cc(-c3nc([C@H]4CC[C@H](C(=O)O)CC4)n4ncnc(N)c34)[nH]c12 [OSI-027] (partner 0.5 µM)
Summary of the method: as §1

Bemcentinib + Linsitinib = compound: Nc1nc(Nc2ccc3c(c2)CC[C@@H](N2CCCC2)CC3)nn1-c1cc2c(nn1)-c1ccccc1CCC2 [Bemcentinib] + C[C@]1(O)C[C@@H](c2nc(-c3ccc4ccc(-c5ccccc5)nc4c3)c3c(N)nccn32)C1 [Linsitinib] (partner 1 µM)
Summary of the method: as §1

Bemcentinib + Tozasertib = compound: Nc1nc(Nc2ccc3c(c2)CC[C@@H](N2CCCC2)CC3)nn1-c1cc2c(nn1)-c1ccccc1CCC2 [Bemcentinib] + Cc1cc(Nc2cc(N3CCN(C)CC3)nc(Sc3ccc(NC(=O)C4CC4)cc3)n2)n[nH]1 [Tozasertib] (partner 0.1 µM)
Summary of the method: as §1

| Cell Line | relative viability ([1]; first compound 1 µM) | relative viability ([1]; first compound 3.162 µM) | relative viability ([1]; first compound 10 µM) | relative viability ([1]; first compound 31.62 µM) | relative viability ([1]; first compound 100 µM) | relative viability ([2]; first compound 1 µM) | relative viability ([2]; first compound 3.162 µM) | relative viability ([2]; first compound 10 µM) | relative viability ([2]; first compound 31.62 µM) | relative viability ([2]; first compound 100 µM) | relative viability (Bemcentinib + Linsitinib; first compound 0.04 µM) | relative viability (Bemcentinib + Linsitinib; first compound 0.1265 µM) | relative viability (Bemcentinib + Linsitinib; first compound 0.4 µM) | relative viability (Bemcentinib + Linsitinib; first compound 1.265 µM) | relative viability (Bemcentinib + Linsitinib; first compound 4 µM) | relative viability (Bemcentinib + Tozasertib; first compound 0.04 µM) | relative viability (Bemcentinib + Tozasertib; first compound 0.1265 µM) | relative viability (Bemcentinib + Tozasertib; first compound 0.4 µM) | relative viability (Bemcentinib + Tozasertib; first compound 1.265 µM) | relative viability (Bemcentinib + Tozasertib; first compound 4 µM) |
| --- | --- | --- | --- | --- | --- | --- | --- | --- | --- | --- | --- | --- | --- | --- | --- | --- | --- | --- | --- | --- |
| NCI-H647 | 0.391 | 0.335 | 0.332 | 0.344 | 0.496 | 0.589 | 0.757 | 0.556 | 0.517 | 0.57 | 1.17 | 1.35 | 1.12 | 1.28 | 1.17 | 0.304 | 0.286 | 0.28 | 0.317 | 0.246 |
| NCI-H661 | 0.561 | 0.603 | 0.555 | 0.462 | 0.503 | 0.691 | 0.707 | 0.678 | 0.514 | 0.579 | 0.587 | 0.53 | 0.609 | 0.656 | 0.548 | 0.357 | 0.344 | 0.338 | 0.34 | 0.339 |
| NCI-H727 | 0.374 | 0.403 | 0.388 | 0.409 | 0.361 | 0.394 | 0.577 | 0.579 |  | 0.404 | 0.331 | 0.286 | 0.288 | 0.3 | 0.293 | 0.537 | 0.759 | 0.606 | 0.629 | 0.58 |
| NCI-H838 | 0.458 | 0.425 | 0.452 | 0.391 | 0.391 | 0.381 | 0.35 | 0.349 | 0.263 | 0.258 | 0.995 | 1.08 | 1.02 | 1.08 | 1.05 | 0.281 | 0.268 | 0.264 | 0.262 | 0.291 |
| NCI-H1355 | 0.39 | 0.362 | 0.298 | 0.31 | 0.282 | 0.336 | 0.329 | 0.323 | 0.307 | 0.309 | 0.858 | 0.98 | 0.848 | 0.903 | 0.99 | 0.529 | 0.569 | 0.562 | 0.61 | 0.538 |
| NCI-H1395 |  | 1.03 | 1.11 |  | 1.19 | 0.541 | 0.629 | 0.617 | 0.432 | 0.643 | 1.06 | 1.21 | 1.01 | 1.48 | 0.962 | 0.759 | 0.763 | 0.782 | 0.739 | 0.753 |
| NCI-H1437 | 0.532 | 0.491 | 0.355 | 0.336 | 0.264 | 1.06 | 0.903 | 0.905 | 0.65 | 0.41 | 1.03 | 1.14 | 1.16 | 1.12 | 1.18 | 0.399 | 0.435 | 0.436 | 0.421 | 0.401 |
| NCI-H1651 | 0.833 | 0.821 | 0.863 | 0.851 | 0.958 | 0.682 | 0.664 | 0.666 | 0.449 | 0.6 | 0.958 | 0.965 | 1.15 | 1.15 | 1.08 | 0.671 | 0.835 | 0.87 | 0.77 | 0.635 |
